Assay results as given in ChEMBL document CHEMBL3244184, “Synthesis of 5-azacytidine-6-13C and -6-14C” (J Med Chem, 1977).

Columns and labels:
[1] = Drug excretion in New Zealand white rabbit bile assessed as NSC-102816 equivalent excretion at 15 mg/kg, iv after 8 hrs by liquid scintillation counting; type: ADME, organism-based, Oryctolagus cuniculus; design: dose 15 mg/kg, route intravenous; conditions: in vivo
[2] = Drug excretion in New Zealand white rabbit urine assessed as NSC-102816 equivalent excretion at 15 mg/kg, iv after 8 hrs by liquid scintillation counting; type: ADME, organism-based, Oryctolagus cuniculus; design: dose 15 mg/kg, route intravenous; conditions: in vivo

Structure (SMILES) | Drug excretion [1] | Drug excretion [2]
N[14c]1ncn([C@@H]2O[C@H](CO)[C@@H](O)[C@H]2O)c(=O)n1 | 1 %ID | 35.3 %ID
Nc1n[14cH]n([C@@H]2O[C@H](CO)[C@@H](O)[C@H]2O)c(=O)n1 | 0.88 %ID | 2.53 %ID
